Measurements: patent publication US5618681A, “Polyaromatic hydrocarbon (PAH) immunoassay method, its components and a kit for use in performing the same” (priority 1995, dated 1997)

System: anti-PAH monoclonal antibody
Experiment: PAH immunoassay (competitive, antibody coated tubes): cross-reactivity with the anti-PAH monoclonal antibody
Assay type: binding, Balb/c mice
Details: for Percent Cross-Reactivity: phenanthrene 100%; for detection in the immunoassay: at 200 ppm levels
Method: Female Balb/c mice received a primary subcutaneous immunization with 50 ug of β-methylnaphthalene derivatized to bovine serum albumin in adjuvant (MPL+TDM Emulsion, RIBI Immunochem Research, Inc., Hamilton, Mont.). Subcutaneous secondary injections (25 ug) were given at day 21, 35, and then monthly. […] Hybridoma cultures producing monoclonal antibodies recognizing free hapten by EIA were cloned by limiting dilution.
Antibody coated tubes were prepared by passively coating polystyrene (12X75 mm, NUNC) tubes with the monoclonal F12-3C8 antibody diluted in PBS and incubating overnight. The NUNC polystyrene tubes were rinsed with hexane prior to use and were all from the same lot.
10 g of a soil sample were placed in an extraction vial containing 20 mL of methanol and 5 steel pellets (6 mm) and the vial and its contents shaken for 1 minute to disperse the soil particles and extract the PAHs. The sample was then filtered to clarify the sample extract using a glass fiber depth filter and a 0.45μ Teflon filter. 45 uL of the clarified filtrate sample was mixed with 955 μl of 10 mM PBS (pH=7.4) and the resulting mixture added to lyophilized enzyme conjugate reagent (0.3 μg) and mixed. At the same time, 2×45 uL of the phenanthrene standard are similarly treated. The sample and the two standards were then poured into three identical antibody coated tubes, respectively, and the resulting solution mixed. The resulting solution was incubated for 10 minutes at ambient temperature and then washed 4X with a wash buffer (detergent-saline solution). 250 uL of tetramethylbenzidene solution (KP Laboratories, Cat. No. 50-76-02) was added along with 250 uL of hydrogen peroxide solution (KPL, Cat. No. 50-65-02) and the resultant solution mixed. After incubating for 2.5 minutes the color development reaction was stopped with 250 uL of stop solution (1M sulfuric acid).
The optical density (OD) of the test sample was compared to the OD of the phenanthrene standard (0.65 ppm soil equivalents) which was tested simultaneously with the sample. If the sample OD is less than the standard OD, the sample contains more than 1 ppm PAH. […] Other concentration ranges can be assessed by diluting the test samples with suitable diluents, as long as they are non-reactive with the components of the assay.
In addition other potentially cross-reactive compounds were tested.

[1] = Non-EPA PAHs and other compounds

c1ccc2cc3c(cc2c1)-c1cccc2cccc-3c12 [Benzo(k)fluoranthene]
Percent Cross-Reactivity (Method 8310 EPA PAHs): 11% | Concentration Giving A Positive Result (ppm, soil equivalent) (Method 8310 EPA PAHs): 9.4 ppm

Cc1ccccc1 [Toluene]
Percent Cross-Reactivity [1]: < 0.5% | Concentration Giving a Positive Result (ppm, soil equivalent) [1]: > 200 ppm

c1ccc2c(c1)ccc1ccccc12 [Phenanthrene, reference compound]
Percent Cross-Reactivity (Method 8310 EPA PAHs): 100% | Concentration Giving A Positive Result (ppm, soil equivalent) (Method 8310 EPA PAHs): 1.0 ppm

c1ccc2cc3ccccc3cc2c1 [Anthracene]
Percent Cross-Reactivity (Method 8310 EPA PAHs): 123% | Concentration Giving A Positive Result (ppm, soil equivalent) (Method 8310 EPA PAHs): 0.81 ppm

c1ccc2c(c1)cc1ccc3cccc4ccc2c1c34 [Benzo(a)pyrene]
Percent Cross-Reactivity (Method 8310 EPA PAHs): 12% | Concentration Giving A Positive Result (ppm, soil equivalent) (Method 8310 EPA PAHs): 8.3 ppm | concentration in soil at which the PAH immunoassay will provide a positive result (in soils): ≥ 8.3 ppm

CCCCC(CC)COC(=O)c1ccccc1C(=O)OCC(CC)CCCC (centres unmarked) [Bis(2-ethylhexyl) phthalate]
Percent Cross-Reactivity [1]: < 0.5% | Concentration Giving a Positive Result (ppm, soil equivalent) [1]: > 200 ppm

c1ccc2c(c1)-c1cccc3c1c-2cc1ccccc13 [Benzo(b)fluoranthene]
Percent Cross-Reactivity (Method 8310 EPA PAHs): 22% | Concentration Giving A Positive Result (ppm, soil equivalent) (Method 8310 EPA PAHs): 4.6 ppm

Clc1cc(Cl)c(Cl)cc1Cl [2,3,5,6-Tetrachlorobenzene]
Percent Cross-Reactivity [1]: < 0.5% | Concentration Giving a Positive Result (ppm, soil equivalent) [1]: > 200 ppm

c1cc2ccc3ccc4ccc5cccc6c(c1)c2c3c4c56 [Benzo(ghi)perylene]
Percent Cross-Reactivity (Method 8310 EPA PAHs): < 0.5% | Concentration Giving A Positive Result (ppm, soil equivalent) (Method 8310 EPA PAHs): > 200 ppm

c1cc2ccc3cccc4ccc(c1)c2c34 [Pyrene]
Percent Cross-Reactivity (Method 8310 EPA PAHs): 29% | Concentration Giving A Positive Result (ppm, soil equivalent) (Method 8310 EPA PAHs): 3.5 ppm

Clc1cc(Cl)c(Cl)c(Cl)c1Cl [Pentachlorobenzene]
Percent Cross-Reactivity [1]: < 0.5% | Concentration Giving a Positive Result (ppm, soil equivalent) [1]: > 200 ppm

Cc1cccc2ccccc12 [1-methylnaphthalene]
Percent Cross-Reactivity [1]: 1.8% | Concentration Giving a Positive Result (ppm, soil equivalent) [1]: 54 ppm

Clc1cccc2ccccc12 [1-chloronaphthalene]
Percent Cross-Reactivity [1]: 1.7% | Concentration Giving a Positive Result (ppm, soil equivalent) [1]: 59 ppm

c1ccc2c(c1)Cc1ccccc1-2 [Fluorene]
Percent Cross-Reactivity (Method 8310 EPA PAHs): 67% | Concentration Giving A Positive Result (ppm, soil equivalent) (Method 8310 EPA PAHs): 1.5 ppm

C1=Cc2cccc3cccc1c23 [Acenaphthylene]
Percent Cross-Reactivity (Method 8310 EPA PAHs): 13% | Concentration Giving A Positive Result (ppm, soil equivalent) (Method 8310 EPA PAHs): 7.5 ppm

Oc1c(Cl)c(Cl)c(Cl)c(Cl)c1Cl [Pentachlorophenol]
Percent Cross-Reactivity [1]: < 0.5% | Concentration Giving a Positive Result (ppm, soil equivalent) [1]: > 200 ppm

c1ccc2c(c1)-c1cccc3cccc-2c13 [Fluoranthene]
Percent Cross-Reactivity (Method 8310 EPA PAHs): 73% | Concentration Giving A Positive Result (ppm, soil equivalent) (Method 8310 EPA PAHs): 1.4 ppm

c1ccc2c(c1)ccc1cc3c(ccc4ccccc43)cc12 [Dibenzo(a,h)anthracene]
Percent Cross-Reactivity (Method 8310 EPA PAHs): < 0.5% | Concentration Giving A Positive Result (ppm, soil equivalent) (Method 8310 EPA PAHs): > 200 ppm

Oc1ccccc1 [Phenol]
Percent Cross-Reactivity [1]: < 0.5% | Concentration Giving a Positive Result (ppm, soil equivalent) [1]: > 200 ppm | detection in the immunoassay: not detected

c1cc2c3c(cccc3c1)CC2 [Acenaphthene]
Percent Cross-Reactivity (Method 8310 EPA PAHs): 12% | Concentration Giving A Positive Result (ppm, soil equivalent) (Method 8310 EPA PAHs): 8.1 ppm

c1ccc2c(c1)oc1ccccc12 [Dibenzofuran]
Percent Cross-Reactivity [1]: 7.2% | Concentration Giving a Positive Result (ppm, soil equivalent) [1]: 14 ppm

c1ccc2c(c1)ccc1c3ccccc3ccc21 [Chrysene]
Percent Cross-Reactivity (Method 8310 EPA PAHs): 84% | Concentration Giving A Positive Result (ppm, soil equivalent) (Method 8310 EPA PAHs): 1.2 ppm

c1ccccc1 [Benzene]
Percent Cross-Reactivity [1]: < 0.5% | Concentration Giving a Positive Result (ppm, soil equivalent) [1]: > 200 ppm | detection in the immunoassay: not detected

c1ccc2c(c1)-c1ccc3ccc4cccc5cc-2c1c3c45 [Indeno(1,2,3-cd)pyrene]
Percent Cross-Reactivity (Method 8310 EPA PAHs): 9.4% | Concentration Giving A Positive Result (ppm, soil equivalent) (Method 8310 EPA PAHs): 11 ppm

Clc1cc(Cl)cc(Cl)c1 [2,4,6-Trichlorobenzene]
Percent Cross-Reactivity [1]: < 0.5% | Concentration Giving a Positive Result (ppm, soil equivalent) [1]: > 200 ppm

Cc1ccc2ccccc2c1 [2-methylnaphthalene]
Percent Cross-Reactivity [1]: 1.7% | Concentration Giving a Positive Result (ppm, soil equivalent) [1]: 58 ppm

c1ccc2ccccc2c1 [Naphthalene]
Percent Cross-Reactivity (Method 8310 EPA PAHs): 0.5% | Concentration Giving A Positive Result (ppm, soil equivalent) (Method 8310 EPA PAHs): 200 ppm

c1ccc2cc3c(ccc4ccccc43)cc2c1 [Benzo(a)anthracene]
Percent Cross-Reactivity (Method 8310 EPA PAHs): 64% | Concentration Giving A Positive Result (ppm, soil equivalent) (Method 8310 EPA PAHs): 1.6 ppm
